Values quoted from earlier work, collected in patent publication US20120295796A1, “System and Method of Predicting Chemical Interaction and Functionality of Molecules” (VASSA INFORMATICS, priority 2010, published 2012).

Columns and labels:
EGFR = EGFR (Homo sapiens, UniProt P00533); settings: search utilizing the entire binding site
HMG-CoA reductase = target: T1, HMG-CoA reductase (Homo sapiens, UniProt P04035); settings: hit of Lipitor search, not structurally similar to Lipitor
T1 sequence (P04035 426-888 limits assumed): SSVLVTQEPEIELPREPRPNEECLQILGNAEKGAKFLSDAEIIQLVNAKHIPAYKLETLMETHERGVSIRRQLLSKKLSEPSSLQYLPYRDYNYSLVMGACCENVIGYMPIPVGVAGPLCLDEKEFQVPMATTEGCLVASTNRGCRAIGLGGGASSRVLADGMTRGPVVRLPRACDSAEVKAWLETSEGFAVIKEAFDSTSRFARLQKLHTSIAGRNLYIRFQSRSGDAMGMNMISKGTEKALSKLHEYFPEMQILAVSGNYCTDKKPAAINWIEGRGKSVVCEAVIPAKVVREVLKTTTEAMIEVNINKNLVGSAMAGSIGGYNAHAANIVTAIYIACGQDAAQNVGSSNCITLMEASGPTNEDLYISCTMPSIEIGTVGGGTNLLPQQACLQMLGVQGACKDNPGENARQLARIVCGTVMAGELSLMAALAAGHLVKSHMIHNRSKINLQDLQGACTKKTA

Sequence of EGFR (P00533 25-1210): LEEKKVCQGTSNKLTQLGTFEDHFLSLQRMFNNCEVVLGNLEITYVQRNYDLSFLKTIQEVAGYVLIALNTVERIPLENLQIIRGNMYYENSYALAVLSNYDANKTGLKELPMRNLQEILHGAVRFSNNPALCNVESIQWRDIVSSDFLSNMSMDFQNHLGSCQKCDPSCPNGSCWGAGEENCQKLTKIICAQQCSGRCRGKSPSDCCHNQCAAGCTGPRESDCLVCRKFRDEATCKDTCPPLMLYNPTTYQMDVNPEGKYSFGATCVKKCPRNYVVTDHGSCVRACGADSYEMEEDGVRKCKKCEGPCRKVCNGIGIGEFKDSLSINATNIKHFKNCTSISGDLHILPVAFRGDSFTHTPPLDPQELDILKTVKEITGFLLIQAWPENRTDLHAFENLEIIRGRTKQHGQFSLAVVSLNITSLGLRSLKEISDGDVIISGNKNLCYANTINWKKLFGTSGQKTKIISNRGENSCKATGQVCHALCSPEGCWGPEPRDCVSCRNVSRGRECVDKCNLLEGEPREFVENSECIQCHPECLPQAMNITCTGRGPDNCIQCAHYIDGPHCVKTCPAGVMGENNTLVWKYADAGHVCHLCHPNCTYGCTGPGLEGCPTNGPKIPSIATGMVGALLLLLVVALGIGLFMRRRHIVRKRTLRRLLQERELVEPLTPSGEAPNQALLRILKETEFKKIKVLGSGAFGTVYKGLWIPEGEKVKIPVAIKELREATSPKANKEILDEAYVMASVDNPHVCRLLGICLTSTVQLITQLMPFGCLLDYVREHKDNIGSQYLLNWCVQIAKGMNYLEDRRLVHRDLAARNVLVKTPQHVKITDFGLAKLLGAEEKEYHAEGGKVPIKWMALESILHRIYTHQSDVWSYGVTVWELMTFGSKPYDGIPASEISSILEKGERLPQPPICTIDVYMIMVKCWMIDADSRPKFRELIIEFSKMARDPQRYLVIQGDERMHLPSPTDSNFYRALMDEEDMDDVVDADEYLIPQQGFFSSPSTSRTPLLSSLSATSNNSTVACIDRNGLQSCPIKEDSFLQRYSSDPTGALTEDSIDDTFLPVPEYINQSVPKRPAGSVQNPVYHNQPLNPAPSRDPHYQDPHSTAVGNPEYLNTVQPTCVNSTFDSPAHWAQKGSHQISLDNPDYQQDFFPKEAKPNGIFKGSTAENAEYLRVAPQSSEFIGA

SMILES | binder status at the Tarceva binding site (ADP binding site) (EGFR) | known binding to HMG-CoA reductase (search result category Known Binders) (HMG-CoA reductase)
Nc1ncnc2c1ncn2[C@@H]1O[C@H](COP(=O)(O)OP(=O)(O)O)[C@@H](O)[C@H]1O [ADP] | already known or suspected as binders | –
Nc1ncnc2c1ncn2[C@@H]1O[C@H](COP(=O)(O)O)[C@@H](O)[C@H]1O [AMP] | already known or suspected as binders | –
Nc1ncnc2c1ncn2[C@@H]1O[C@H](COP(=O)(O)OP(=O)(O)OP(=O)(O)O)[C@@H](O)[C@H]1O [ATP] | already known or suspected as binders | –
CC(C)(COP(=O)(O)OP(=O)(O)OC[C@H]1O[C@@H](n2cnc3c(N)ncnc32)[C@H](O)[C@@H]1OP(=O)(O)O)[C@@H](O)C(=O)NCCC(=O)NCCS [Coenzyme A] | – | binds HinG-CoA reductase
